Experimental data published in BindingDB's records for doi:10.1021/jm00111a038 (Ici Pharmaceuticals Group, 1991).

Assay: Inhibition of 5-lipoxygenase in human whole blood.

SMILES	IC50 [µM]
CCCCCCCCCCOc1cccc(C(O)c2ncc(C)[nH]2)c1 (stereo not drawn)	6.3
Cc1cnc(C(O)c2cccc(OCc3ccc(-c4ccccc4)cc3)c2)[nH]1 (stereo not drawn)	7
OC(c1cccc(OCc2ccc3ccccc3c2)c1)c1nccs1 (stereo not drawn)	5.1
